Experimental data as given in patent US8354400B2, “Benzoxazole compounds and methods of use” (Eisai R&D Co., Ltd., priority 2008, dated 2013).
“Also recorded” adds a separate entry of the source.

How the values were obtained:
[1] = system: collagen induced arthritis in male DBA/1J mice; experiment: Type II collagen induced arthritis model; format: in vivo; details: 5 days per week from day 9
Protocol: The type II collagen induced arthritis model was used for the purpose of in vivo evaluation of Compound 2 for the treatment of arthritis. In this model, arthritis was induced in male DBA/1J (Jackson Labs) mice using complete Freund's adjuvant. A first priming/immunization dose of 300 μg of bovine type II collagen emulsified in an equal volume of complete Freund's adjuvant is injected subcutaneously (s.c.) at least 5 mm from the base of the tail.
Starting on day 9 after immunization and each day for 5 days per week thereafter, each mouse was dosed orally with 6 mg/kg, 20 mg/kg, or 60 mg/kg of Compound 2 or placebo 5 days per week.
A second immunization dose was administered 21 days after the first immunization by s.c. injection above the first immunization site of 200 μg of bovine type II collagen emulsified in an equal volume of incomplete Freund's adjuvant. To further promote arthritis progression, animals receive an intraperitoneal injection of lipopolysaccharide (LPS) (1 μg/mouse in PBS) three days after the second immunization.
At 21, 25, 28, and 31 days after the first immunization dose, the animals were examined for evidence of paw swelling and assigned an arthritis score at each time point.

[2] = system: lymph node IL-6 release on CpG 1668 stimulation; experiment: Lymph node response: in vivo dosing, ex vivo CpG 1668 stimulation, IL-6 ELISA; parameters: species or system mice; details: for IL-6 release in the lymph nodes: mice, oral 20 mg/kg or 60 mg/kg daily for two weeks, ex vivo CpG 1668 1 μg/ml 72 hrs
Protocol: Mice were orally administered one of those two compounds or hydroxychloroquine (“HCQ”) at either 20 mg/kg or 60 mg/kg daily for two weeks. After in vivo dosing, lymph nodes were removed and stimulated in vitro with CpG 1668 at 1 μg/ml for 72 hrs, after which supernatants were removed and assayed by ELISA for IL-6. Levels of dosing are indicated after each compound name appearing in the Figure.

[3] = system: MRL/MpJ-faslpr/J mice (MRL/lpr); experiment: MRL/MpJ-faslpr/J spontaneous lupus model, Experiment 1; format: in vivo
Protocol: In this experiment, MRL/MpJ-faslpr/J mice (“MRL/lpr”) obtained from Jackson Laboratories were dosed orally with Compound 23 at 20 or 60 mg/kg in water. MRL/lpr mice have a defect in lymphocyte death and spontaneously develop autoantibodies including the anti-nuclear antibodies found in human systemic lupus erythematosus (SLE). Dosing was performed daily five days a week beginning at 5 weeks of age. Blood and urine samples were taken prior to dosing on day one and every three to four weeks thereafter. An ELISA assay was used to measure serum anti-dsDNA before and after 7 weeks of dosing. The assay was conducted using a Mouse Anti-dsDNA Total Ig Qualitative ELISA kit (Alpha Diagnostic International, San Antonio. TX).
Anti-nuclear antibodies (“ANA”) in this experiment were also examined by exposing fixed […] cells, obtained as fixed samples on slides from Antibodies Inc., to diluted serum from the mice dosed with Compound 23 at 20 or 60 mg/kg, as described above, and staining for mouse immunoglobulin using the kit reagents supplied by Antibodies Inc. according to the kit instructions. Intensity of fluorescent staining was then read by microscope, and scores were assigned values between − and +++. Sample identifications were blinded for data collection.

[4] = system: MOGp35-55-induced EAE in C57BL/6J mice; experiment: Experimental autoimmune encephalitis (EAE) multiple sclerosis model; format: in vivo
Protocol: Experimental autoimmune encephalitis (EAE) is an induced autoimmunity in mice that mimics human multiple sclerosis, including autoantibody and cellular responses targeted against central nervous system antigens. To induce EAE, groups of 8 male C57BL/6J mice (Jackson Laboratories) were immunized subcutaneously on day 0 with the synthetic peptide MOGp35-55 (Becher et al. J. Clin. Invest. 112:1186-1191 (2003)), with amino acid sequence […] (SEQ ID NO:4) at a dose of 200 μg/mouse in complete Freund's adjuvant (CFA). At the same time the animals received pertussis toxin, i.p. at 30 ng/mouse. On day 2 the pertussis injection was repeated. On day 7 the mice were boosted with MOGp35-55, 200 μg/mouse in incomplete Freund's. Beginning on day 9 the mice were dosed daily by oral gavage with Compound 23 in water at 20 mg/kg or 60 mg/kg. Symptoms were scored by observing degree and location of paralysis of the tail and limbs, the average score for each group of 8 mice is shown.

NZBWF1/J mice = experiment: NZBWF1/J spontaneous lupus model; format: in vivo; details: for anti-dsDNA: 16 weeks of treatment, 20 mg/kg or 60 mg/kg p.o.; for body weight: after 3 to 4 months of dosing; for distribution of ANA scores: after 12 weeks of treatment
Protocol: An in vivo study of Compound 23 and Compound 30 was conducted in an NZBWF1/J mouse model. Mice were obtained from Jackson Laboratories, divided into groups of 12, and dosed orally with compounds in water five days a week beginning at 5 months of age.

MRL/lpr mice = experiment: MRL/lpr spontaneous lupus model, Experiment 2; format: in vivo; details: 12 weeks, high dose (60 mg/kg p.o.)
Protocol: In this SLE experiment, dosing, groups were as described in Table 4 below. Two dose levels of Compound 23 were compared to HCQ and cyclophosphamide (Cytoxan®). HCQ and cyclophosphamide are currently used in the treatment of cutaneous and systemic lupus, respectively. […] Sera were assayed at a 1:600 dilution in PBS. (Mouse Anti-dsDNA Total Ig Qualitative ELISA kits, Alpha Diagnostic International). Dosing was conducted by either oral (p.o.) or intraperitoneal (i.p.) administration.

Compound | paw swelling (arthritis score) ([1]; 60 mg/kg oral) | paw swelling (arthritis score) ([1]; 6 and 20 mg/kg oral) | IL-6 release in the lymph nodes [2] | serum anti-dsDNA, mean OD450 versus vehicle ([3]; MRL/lpr mice, 10 weeks of dosing) | serum anti-dsDNA versus vehicle ([3]; MRL/lpr mice, 12 weeks and beyond) | dosage-related toxicity (general appearance, body weight) ([3]; MRL/lpr mice, 20 or 60 mg/kg oral) | serum anti-dsDNA, mean OD450 versus vehicle ([3]; MRL/lpr mice, 20 or 60 mg/kg oral, 7 weeks of dosing) | anti-nuclear antibody (ANA) development ([3]; MRL/lpr mice, 20 or 60 mg/kg oral, 4, 10, 12 weeks of dosing) | anti-dsDNA in the MRL/lpr model of SLE (summary) ([3]; daily oral dosing with 60 and 20 mg/kg) | IL-6 release in the lymph nodes, low dose ([2]; 20 mg/kg oral daily for two weeks) | MOG-induced EAE symptom score compared to control mice ([4]; 20 mg/kg oral gavage daily from day 9) | MOG-induced EAE symptom score ([4]; 60 mg/kg oral gavage daily from day 9) | proteinuria (NZBWF1/J mice; NZB/W mice) | histological examination of muscle, brain, kidney and spleen (hematoxylin and eosin) (NZBWF1/J mice; NZBWF1/J mice) | anti-dsDNA (NZBWF1/J mice; NZBWF1/J mice) | body weight (NZBWF1/J mice; NZBWF1/J mice) | distribution of ANA scores (NZBWF1/J mice; NZBWF1/J mice) | difference in mean dsDNA level between vehicle and compound (MRL/lpr mice) | anti-dsDNA at high dose (NZBWF1/J mice; NZBWF1/J mice, 60 mg/kg p.o.)
CN(C)CCCOc1ccc(-c2nc3ccc(OCCCN(C)C)cc3o2)cc1 [Compound 2] | not clear | Suppression of paw swelling | suppressed IL-6 release |  |  |  |  |  |  |  |  |  |  |  |  |  |  |  | 
c1cc(-c2nc3ccc(OCCCN4CCCC4)cc3o2)ccc1OCCCN1CCCC1 [Compound 23] |  |  | suppressed IL-6 release | statistical difference was still observed | more similar to vehicle-treated animals | No evidence of dosage-related toxicity | statistically significant suppression | dose-dependent suppression of ANA development; also recorded: dose-dependent inhibition | suppression of anti-dsDNA | particularly high levels of suppression | suppressed significantly | suppressed further | no effect | no obvious pathology | Neither of the compounds tested in this study, Compound 23 or Compound 30, showed an effect on anti-dsDNA; also recorded: no effect | dose-related weight loss | no effect | statistically significant difference | 
c1cc(-c2nc3ccc(OCCCN4CCCCC4)cc3o2)ccc1OCCCN1CCCCC1 [Compound 30] |  |  |  |  |  |  |  |  |  |  |  |  |  | no obvious pathology | Neither of the compounds tested in this study, Compound 23 or Compound 30, showed an effect on anti-dsDNA | dose-related weight loss | no effect |  | some suppression of anti-dsDNA at the high dose of 60 mg/kg, but, this was not statistically significant
